Source: patent US9023758B2, “Methods for promoting plant health” (University of Delaware, priority 2009, dated 2015)

What was measured:
[1] = test system: PDF1.2 and PR1 transcripts; assay: RT-PCR of defense genes PDF1.2 and PR1; format: in vivo, Arabidopsis thaliana; conditions: leaves, compared to mock inoculated plants
Description: To further confirm that a FB17 component, acetoin, mediates this response we analyzed the defense genes PDF1.2 and Jin1 whose expression depends on functional ET and JA pathways.

free SA = free SA levels in Arabidopsis leaves; conditions: compared to control untreated plants
PR1::GUS = PR1::GUS reporter expression in Arabidopsis
DC3000 = assay: acetoin treatment of Arabidopsis plants leaf inoculated with DC3000
B. subtilis strain FB17 = assay: capillary chemotaxis assay; format: cell-based, Bacillus subtilis
Method: (§1) To evaluate MA's ability to selectively recruit FB17, microbial motility at varying MA doses was measured by capillary chemotaxis assay (Gordillo et al., 2007). […] The concentration range of 5 to 30 μM falls within the biological titers of MA secreted in planta through the root exudates. […] To establish whether L-MA specifically chemoattracts FB17, other beneficial bacteria, such as Pseudomonas fluorescens strain Pf01 and Azospirillum brasilense strain Cd, and pathogenic bacteria, such as Pst DC3000, Erwinia carotovora strain AH2, Agrobacterium rhizogenes strain Arqua-1, and Agrobacterium tumefaciens strain LBA4404, were assayed for MA. […] Bacterial strains used in the chemotactic assay included B. subtilis strain FB17, A. tumefaciens strain LBA4404, E. carotovora strain AH2, A. rhizogenes strain Arqua-1, A. brasilense strain Cd, P. fluorescens (Pf01), and P. syringae (Pst DC3000). Data are the average of six replicates from two experiments conducted separately.

yqxM operon = format: cell-based, B. subtilis strain Marburg
[2] = test system: Agrobacterium rhizogenes strain Arqua-1; assay: capillary chemotaxis assay; format: cell-based
Method: as §1

[3] = test system: Agrobacterium tumefaciens strain LBA4404; assay: capillary chemotaxis assay; format: cell-based
Method: as §1

[4] = test system: Azospirillum brasilense strain Cd; assay: capillary chemotaxis assay; format: cell-based
Method: as §1

[5] = test system: Erwinia carotovora strain AH2; assay: capillary chemotaxis assay; format: cell-based
Method: as §1

[6] = test system: Pseudomonas fluorescens strain Pf01; assay: capillary chemotaxis assay; format: cell-based
Method: as §1

Pst DC3000 = assay: capillary chemotaxis assay; format: cell-based, Pseudomonas syringae pv tomato
Method: as §1

CC(=O)C(C)O (stereo not drawn) [acetoin, 3-hydroxy-2-butanone]
PDF1.2 transcripts [1]: more
PR1 transcripts [1]: more
free SA levels (free SA): enhances the total free SA level
PR1::GUS expression (PR1::GUS; treated or root inoculated plants compared to untreated plants): enhanced PR1 expression
percent disease incidence (DC3000; Arabidopsis, ratio of leaves with symptoms to leaves inoculated, vs untreated): significantly lower
disease symptoms (DC3000; Arabidopsis, volatile treatment, 5 days post-infection, compared to untreated controls): significantly lower disease symptoms
DC3000 CFUs from leaves (DC3000; Arabidopsis, vs untreated, P<0.05): lower DC3000 CFUs
protection from DC3000 infection (DC3000; SA deficient NahG plants): failed to protect
protection from DC3000 infection (DC3000; ethylene mutant etr1-3 plants): failed to protect
DC3000 multiplication in terms of CFUs (DC3000; jasmonic acid mutant Jar1-1): significantly reduction in DC3000 multiplication
DC3000 multiplication in terms of CFUs (DC3000; wild type Col-0): significantly reduction in DC3000 multiplication

O=C(O)C[C@@H](O)C(=O)O [D-MA]
chemotactic efficacy compared to the natural L-MA form (B. subtilis strain FB17; 30 μM): lower efficacies
chemotaxis compared to water control (B. subtilis strain FB17; 30 μM): significantly higher than the water control
expression of biofilm operon yqxM (β-galactosidase activity) (yqxM operon): did not stimulate β-galactosidase activity

O=C(O)C[C@H](O)C(=O)O [L-MA, L-malic acid]
chemotactic behavior of FB17 (B. subtilis strain FB17; dose range of 5 to 30 μM): positive chemotactic behavior in a concentration-dependent manner
motility toward L-MA compared to FB17 [2]: none of the bacteria shows any significant motility
motility toward L-MA compared to FB17 [3]: none of the bacteria shows any significant motility
motility toward L-MA compared to FB17 [4]: none of the bacteria shows any significant motility
motility toward L-MA compared to FB17 [5]: none of the bacteria shows any significant motility
motility toward L-MA compared to FB17 [6]: none of the bacteria shows any significant motility
motility toward L-MA compared to FB17 (Pst DC3000): none of the bacteria shows any significant motility
expression of biofilm operon yqxM (β-galactosidase activity) (yqxM operon): elevated expression
β-galactosidase activity level and kinetics compared to root exudates (yqxM operon): activity level was lower and the kinetics response was abbreviated

O=C(O)c1ccccc1O [SA]
PR1 expression (PR1::GUS; leaves sprayed): higher PR1 expression
PR1 expression (PR1::GUS; root treated plants): much less PR1 expression

O=C(O)C(=O)O [oxalic acid, reference compound]
chemotactic efficacy compared to the natural L-MA form (B. subtilis strain FB17; 30 μM): lower efficacies
expression of biofilm operon yqxM (β-galactosidase activity) (yqxM operon): did not stimulate β-galactosidase activity
